Where two headings read alike, the source gives them in different places.
What was measured:
[1] = test system: W-2 Indochina P. falciparum clone; experiment: in vitro testing against P. falciparum, W-2 Indochina clone; assay type: cell-based; conditions: for IC50: Plasmodium falciparum
From the text: (§1) The analog 1 was sent to Walter Reed Army Institute of Research (WRAIR) for in vitro testing against P. falciparum using modifications of the procedures of Desjardins et al, 1979, and Milhous et al, 1985, (Desjardins, R. E., C. J. Canfield, D. E. Haynes, and J. D. Chulay, Antimicrob. Angents Chemother., Vol. 16, 710-718 (1979); Milhous, W. K., N. F. Weatherly, J. H. Bowdre, and R. E. Desjardins, Antimicrob. Agents Chemother. Vol. 27, 525-530, 1985.) to assess the intrinsic activity of compound 1 as an anti-malarial drug relative to simultaneous known controls such as chloroquine, mefloquine; pyrimethamine, sulfadoxine, tetracycline, qinghaosu or quinine. Since some anti-malarials are more static than cidal in action, it is necessary to extend the incubation period to assess the effects of such drugs on parasite growth rates. In order to insure exponential parasite growth and maximum uptake of radioisotope throughout the extended incubation, reduced starting parasitemias (0.2%) and reduced red cell hematocrits (1.0%) are required. As a result, drugs which are actively incorporated into erythrocytes (such as chloroquine or qinghaosu) will have slightly lower 50% inhibitory concentrations than in other assay systems employing higher red cell hematocrits. Except for the contribution from the 10% normal pooled human plasma and added 10^-10 M (0.014 ng/ml) PABA, the culture medium is folate-free. The trace amount of PABA insures exponential growth of the sulfonamide-susceptible parasite clone without antagonizing the activity of antifol anti-malarials.
(§2) All test compounds are solubilized in DMSO and diluted 400-fold (to rule out a DMSO effect) in culture medium with plasma for a starting concentration of at least 12,500 ng/ml. Drugs are subsequently diluted fivefold using the Cetus Pro/Pette™ system utilizing a range of concentrations from 0.8 ng/ml to 12,500 ng/ml. Fifty percent inhibitory concentrations are reported in ng/ml.
(§3) Table 1 summarizes differences in the susceptibility profiles of the two control P. falciparum clones (Oduola, A. M. J., N. F. Weatherly, J. H. Bowdre, R. E. Desjardins, Thirty-second Annual Meeting, American Society of Tropical Medicine and Hygiene, San Antonio, Tex., Dec. 4-8, 1983) and provides results of testing. The W-2 Indochina P. falciparum clone is resistant to chloroquine, pyrimethamine and sulfadoxine but […]. The D-6 African P. falciparum clone is susceptible to chloroquine, pyrimethamine and sulfadoxine but […].

[2] = test system: D-6 African P. falciparum clone; experiment: in vitro testing against P. falciparum, D-6 African clone; assay type: cell-based
From the text: as §1, §2, §3

P. falciparum = experiment: in vitro testing against P. falciparum (two strains together / assay medium); assay type: cell-based
From the text: as §1, with “Except for the contribution from the 10% normal pooled human plasma and added 10^-10 M (0.014 ng/ml) PABA, the culture medium is folate-free. The trace amount of PABA insures exponential growth of the sulfonamide-susceptible parasite clone without antagonizing the activity of antifol anti-malarials.” left out

[3] = test system: W-2 Indochina P. falciparum clone; conditions: W-2 Indochina clone; cited from earlier work
[4] = test system: D-6 African P. falciparum clone; conditions: D-6 African clone; cited from earlier work
[5] = Plasmodium falciparum, D-6 African clone (strain head not given; assigned), read-out: IN VITRO ED50 (fifty percent inhibitory concentration)
[6] = Plasmodium falciparum, D-6 African clone (strain head not given; assigned), read-out: IN VITRO ED50 (fifty percent inhibitory concentration), × 10^-9 M

Structure (SMILES) | IC50 [2, 5] | IC50 [2, 6] | susceptibility of the clone [3] | susceptibility of the clone [4] | further results
C[C@@]12CC[C@H]3CCC[C@H]4CC(=O)O[C@H](O1)[C@@]34OO2 (relative stereo) [Compound 1, (±)-13,14-desmethylartemisinin] | 21.1 ng/mL | 83 nM | – | – | potency relative to chloroquine ([1]; W-2 Indochina strain): about three times as potent as the classical antimalarial agent chloroquine; activity relative to the natural product Qinghaosu ([1]; W-2 Indochina strain, fraction as active as Qinghaosu): approximately 1/2; antimalarial activity (in words) (P. falciparum; data of Table 1): highly active antimalarial agent; antimalarial potency (P. falciparum; varies with strain, versus the other five compounds): still in the nanogram range
CCO[C@H]1O[C@@H]2O[C@@]3(C)CC[C@H]4[C@H](C)CC[C@@H]([C@H]1C)[C@@]24OO3 [Arteether] | – | – | – | – | IN VITRO ED50 (fifty percent inhibitory concentration) ([1]; W-2 Indochina clone (strain head not given; assigned)): 1.23 ng/mL; IN VITRO ED50 (fifty percent inhibitory concentration) ([2]; D-6 African clone (strain head not given; assigned)): 1.87 ng/mL; IC50 ([2]; D-6 African clone (strain head not given; assigned), read-out: IN VITRO ED50 (fifty percent inhibitory concentration), × 10^-9 M): 6 nM
CCN(CC)CCCC(C)Nc1ccnc2cc(Cl)ccc12 (stereo not drawn) [Chloroquine] | – | – | resistant | susceptible | IC50 ([1]; read-out: IN VITRO ED50 (fifty percent inhibitory concentration), ng/ml): 26.8 ng/mL; IC50 ([1]; read-out: IN VITRO ED50 (fifty percent inhibitory concentration), × 10^-9 M): 52.1 nM; IC50 ([2]; Plasmodium falciparum, read-out: IN VITRO ED50 (fifty percent inhibitory concentration), ng/ml): 5.91 ng/mL; IC50 ([2]; Plasmodium falciparum, read-out: IN VITRO ED50 (fifty percent inhibitory concentration), × 10^-9 M): 11.5 nM
C[C@@H]1CC[C@H]2[C@@H](C)C(O)O[C@@H]3O[C@@]4(C)CC[C@@H]1[C@]32OO4 (stereo partly drawn) [Dihydro-quinghaosu] | 0.47 ng/mL | 1.68 nM | – | – | –
OC(c1cc(C(F)(F)F)nc2c(C(F)(F)F)cccc12)C1CCCCN1 (stereo not drawn) [Mefloquine] | 22.2 ng/mL | 53.7 nM | susceptible | resistant | –
C[C@@H]1CC[C@H]2[C@@H](C)C(=O)O[C@@H]3O[C@@]4(C)CC[C@@H]1[C@]32OO4 [Qinghaosu, artemisinin] | 3.09 ng/mL | 11 nM | – | – | –
CCc1nc(N)nc(N)c1-c1ccc(Cl)cc1 [pyrimethamine] | – | – | resistant | susceptible | –
COc1ncnc(NS(=O)(=O)c2ccc(N)cc2)c1OC [sulfadoxine] | – | – | resistant | susceptible | –

Source: patent US5180840A, “Process for preparing analogs of artemisinin” (SRI International, priority 1991, dated 1993)
